Assay results taken from patent EP0227593A1, “Use of chelating agents” (THE HOSPITAL FOR SICK CHILDREN, priority 1985, dated 1987).

Legend:
[1] = test system: peripheral blood blast cell numbers; test: 20-day experimental treatment protocol in a leukemia patient: WBC and blast counts; type: in vivo, human
Experimental: With informed consent and following an approval by the Human Experimentation Committee of our institution, an experimental protocol was initiated: DFO, dissolved in sterile water was given by continuous infusion of 10 mg/kg/hour; cytosine arabinoside (Ara-C) dissolved in saline was given by i.v. push, 5 mg/kg/dose. When used consecutively, DFO was stopped 8-12 hours prior to cytosine arabinoside.
Deferoxamine (DFO) was given by continuous infusion 10 mg/kg/hr Cytosine-arabinoside (Ara-C) was given by i.v. push, 5 mg/kg/dose.

bone marrow cells = test: Surface marker analysis by immunofluorescence on bone marrow cells at conclusion of the 20-day treatment; type: in vivo, human; conditions: conclusion of 20-day treatment course
Experimental: Cell Culture Procedure: 2 x 10⁵ T-depleted cells were incubated with 40 % RPMI-methylcellulose, 20 % PHA-LCM, 10 % FCS, irradiated feeder cells (10⁵/dish), 16.6 % RPMI in 35 mm Petri dishes. The culture dishes were placed into a specialized modular incubator chamber (Billups-Rosenberg, Del Mar, CA) in a humidified atmosphere of 5 % O₂, 5 % CO₂ and balanced nitrogen for 3-6 days. After 2 days of incubation, the culture dishes were carefully examined. Colonies were counted at day 4. A cluster of more than 20 cells was defined as a colony. Individual colonies were plucked from the culture plates and smeared on microscope slides for further evaluation, using Wright stain and non-specific esterase staining. For control, 2 x 10⁵ irradiated feeder cells were cultured in the same assay system in each experiment to exclude their potential for colony formation Immunocytochemical Method: The cell surface antigens of air dried smears were detected using monoclonal antibodies and intestinal alkaline phosphatase, as previously described. This assay was performed to detect surface antigens on patients' PB and BM smears and colonies plucked from cultures. The slides were counter- stained in hematoxylin for light microscopy and the presence of surface antigen was indicated as bright red granular cellular inclusions. Morphologic details were well preserved, and a very high degree of correlation between morphology and surface antigen expression was observed. The intensity of staining was defined as strong (+++), moderate (++) and weak (+). Immunofluorescence Method: The cell surface phenotype was determined by indirect cell-surface fluorescence: A fluorescein-conjugated goat anti-mouse IgG (FAb')₂ was used as second antibody. The labelling was performed at room temperature in the presence of 0.2 % sodium azide. The percentage of cells with surface fluorescence was determined by counting cells stained in three replicate wells using an inverted phase-fluorescent microscope. Monoclonal Antibodies: The following monoclonal antibodies were used in these studies: anti-OKIa (Ortho Diagnostic Systems Inc. Raritan, NJ) to detect HLA-D framework antigen, anti-MY-7, anti-Mol and anti-MY-4 (coulter Immunology) to identify myelomonocytic markers, anti-Ig. anti-BA1, anti-BA2, anti-B1, and anti-B4 (Becton-Dickinson) to recognize cells of the B-cell lineage, anti-J5 (Coulter Immunology) to recognize cells bearing common ALL (CALLA) antigen and anti-Leu-1 and anti-Leu-4 (Coulter Immunology) to recognize cells of the T-cell lineage.
Immunologic surface markers were determined by immunofluorescence before and at the conclusion of the 20-day treatment course on bone marrow cells.

HL-60 cells = test: Colony growth of HL-60 cells; type: cell-based, human
Experimental: HL-60 cells, a promyeloctic leukemia cell line originally developed by Dr. R. Gallo, NIH, were used. Cells were grown in RPMI supplemented with 10 % heat inactivated fetal calf serum (FCS, Flow Laboratories, Rockville, MO) and 2 mM glutamine (Gibco, Berkely, CA), at densities ranging from 1-2 x 10⁵/ml to 1-10⁶/ml, in a 5 % CO₂ humidified atmosphere at 37°C.
HL-60 cells (10⁴/ml) were plated in 0.8 % methycellulose in RPMI-1640 medium supplemented with 20 % heat inactivated (56°C, 30 min) fetal calf serum at a final volume of 1 ml/culture plate. Cultures were set up in duplicates and maintained at 37°C in a 5 % CO₂ humidified atmosphere. Deferoxamine was dissolved in iron-free RPMI culture medium and added at the initiation of culture at different concentrations (1-10 µM). Colonies were counted at 7 days using an inverted microscope. A cluster of more than 20 cells was defined as a colony. Individual colonies were plucked from culture plates spread on glass slides and morphologically assessed after preparation with Wright's stain and non-specific esterase in the presence of fluoride (29). The self renewal capacity of cells was assessed according to McCulloch et al (30). RPMI-1640 medium was added to culture dishes for 2 hrs; the contents of each dish were then transferred into a tube, centrifuged and washed with medium three times. Cells from each dish were counted separately, and viability was assessed by trypan blue dye exclusion. Cells (1x10⁴/ml) from each dish were recultured in 0.8 % methylcellulose as before.

Lewis lung carcinoma = test: Tumour growth and metastases of Lewis lung carcinoma in mice; type: in vivo; conditions: 11 injections
Experimental: Female C57B16 mice (10 mice/group, 18-22 g body weight) were i.m. injected into the left hind leg with 0.1 ml of a tumour cell suspension of Lewis lung carcinoma (day 0).
Nine groups of animals were investigated. The test compounds were s.c. administered as follows: physiological saline: once daily for eleven days starting from day 0 up to day 10. DFO: 0.5 ml in distilled water in a dose of 10 and 30 mg/kg once daily for eleven days, on day 0 up to day 10 after tumour inocculation. 10-EDAM: 0.5 ml in distilled water in a dose of 3 and 6 mg/kg, once daily on days 1, 3, 5, 7 and 9 after tumour inocculation.
Both hind legs were removed from the body, weighed, and the difference between the tumour bearing and the tumour free leg was taken as the tumour weight of one idividual mouse.
Lungs were filled up with Pelikan-ink via the trachea, fixed in Fekete-solution and metastases (white spot on black back-ground) on the lung surface were counted microscopically.

[2] = Day 1, DFO continuous infusion 10 mg/kg/hr, 24 h
[3] = Day 3, after first 48 hours of DFO, Ara-C starts Day 3

CC(=O)N(O)CCCCCNC(=O)CCC(=O)N(O)CCCCCNC(=O)CCC(=O)N(O)CCCCCN [DFO, desferioxamine methanesulfonate]
Blasts [1, 2]: 4.22e+10 L⁻¹ | WBC [1, 2]: 6.25e+10 L⁻¹ | Blasts [1, 3]: 4.09e+10 L⁻¹ | WBC [1, 3]: 6.39e+10 L⁻¹ | % Positive Cells B4 (bone marrow cells): 10% | % Positive Cells BA-1 (bone marrow cells): 0% | % Positive Cells BA-2 (bone marrow cells): 0% | % Positive Cells Ia (bone marrow cells): 75% | % Positive Cells MY-4 (bone marrow cells): 20% | % Positive Cells MY-7 (bone marrow cells): 20% | % Positive Cells Mo1 (bone marrow cells): 20% | % Positive Cells sIg (bone marrow cells): 0% | inhibition of HL-60 colony proliferation (HL-60 cells; 10 µm DFO): 100% | inhibition at 3.5 µM (HL-60 cells; Homo sapiens, HL-60, 3.5 µM DFO, read-out: inhibition of HL-60 colony proliferation): 50% | Number of lung metastases % of control (Lewis lung carcinoma; group 2: DFO 10 mg/kg s.c.): 103% | Number of lung metastases x̄ ± SD (Lewis lung carcinoma; group 2: DFO 10 mg/kg s.c.): 69 ± 26 | Tumour weight % of control (Lewis lung carcinoma; group 2: DFO 10 mg/kg s.c.): 100% | Tumour weight x̄ ± SD (Lewis lung carcinoma; group 2: DFO 10 mg/kg s.c.): 7.56 ± 0.32 g | Number of lung metastases % of control (Lewis lung carcinoma; group 3: DFO 30 mg/kg s.c.): 78% | Number of lung metastases x̄ ± SD (Lewis lung carcinoma; group 3: DFO 30 mg/kg s.c.): 52 ± 16 | Tumour weight % of control (Lewis lung carcinoma; group 3: DFO 30 mg/kg s.c.): 106% | Tumour weight x̄ ± SD (Lewis lung carcinoma; group 3: DFO 30 mg/kg s.c.): 7.99 ± 0.42 g
